The values below come from patent publication US20160095843A1, “PYRAZOLOPYRROLIDINE DERIVATIVES AND THEIR USE IN THE TREATMENT OF DISEASE” (NOVARTIS AG, priority 2013, published 2016).

In one assay the test system is MV-4-11 cells. In words: Cell growth inhibition assay (CellTiter-Glo), MV-4-11. Type of assay: cell-based. To be noted: Homo sapiens, MV4-11. Summed up:
(§1)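 Cellular ATP (CellTiter-Glo luminescence) measured after 4 days at 37° C., 5% CO2 of compound exposure, top concentration 10 μM in 3-fold steps, 0.1% DMSO. Readings corrected for no-cell background and a day-0 plate, normalised to vehicle and medium wells; half-maximal and total growth inhibition from four-parameter curves.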

Another assay relates to K-562 cells. The assay is described as follows: Cell growth inhibition assay (CellTiter-Glo), K-562. Type of assay: cell-based, human. The following applies: for GI50: Homo sapiens, K562. Summed up:
as §1
(Cellular ATP, detected with luciferase, serves as a proxy for viable cell number.)

The next assay has as its system THP-1 cells. In words: Cell growth inhibition assay (CellTiter-Glo), THP-1. Type of assay: cell-based. To be noted: Homo sapiens. Summed up:
as §1

Take `COc1ncc(-n2nc3c(c2C(C)C)C(c2ccc(Cl)cc2)N(c2ccc4onc(C)c4c2)C3=O)c(OC)n1` (stereo not shown) [Example 54, 4-(4-chlorophenyl)-2-(2,4-dimethoxypyrimidin-5-yl)-3-isopropyl-5-(3-methylbenzo-[d]isoxazol-5-yl)-4,5-dihydropyrrolo[3,4-c]pyrazol-6(2H)-one]: the concentration for 50% growth inhibition (GI50) with MV-4-11 cells was determined as 0.458 µM; in the assay with K-562 cells, 1.53 µM; in the assay on THP-1 cells it was 0.637 µM.
For `CCn1nc(C)c2c1C(=O)N(c1cc(C)c(=O)n(C)c1)C2c1ccc(Cl)cc1F` (stereo not shown) [Example 170, 4-(4-chloro-2-fluorophenyl)-5-(1,5-dimethyl-6-oxo-1,6-dihydropyridin-3-yl)-1-ethyl-3-methyl-4,5-dihydropyrrolo-[3,4-c]pyrazol-6(1H)-one] the same measures were 0.00766 µM, 0.0485 µM and 0.0135 µM.
As for `Cc1cc(N2C(=O)c3nn(C4CC4)c(C)c3[C@H]2c2ccc(Cl)cc2)cn(C)c1=O` [Example 21, (R)-4-(4-chlorophenyl)-2-cyclopropyl-5-(1,5-dimethyl-6-oxo-1,6-dihydropyridin-3-yl)-3-methyl-4,5-dihydropyrrolo[3,4-c]pyrazol-6(2H)-one], the results for the GI50 with MV-4-11 cells, in the assay with K-562 cells and in the assay on THP-1 cells were 0.0223 µM, 0.266 µM and 0.0366 µM, respectively.
The corresponding values for `Cc1cc(N2C(=O)c3c(c(C(F)(F)F)nn3C3CC3)C2c2ccc(Cl)cc2)cn(C)c1=O` (stereo not shown) [Example 45, 4-(4-chlorophenyl)-1-cyclopropyl-5-(1,5-dimethyl-6-oxo-1,6-dihydropyridin-3-yl)-3-(trifluoromethyl)-4,5-dihydropyrrolo[3,4-c]pyrazol-6(1H)-one] are 0.251 µM, 0.994 µM and 0.357 µM.
On to `CCn1nc(C)c2c1C(=O)N(c1cc(C)c3nnc(C)n3c1)C2c1ccc(Cl)cc1F` (stereo not shown) [Example 185, 4-(4-chloro-2-fluorophenyl)-5-(3,8-dimethyl-[1,2,4]triazolo[4,3-a]pyridin-6-yl)-1-ethyl-3-methyl-4,5-dihydropyrrolo-[3,4-c]pyrazol-6(1H)-one], for which the concentration for 50% growth inhibition (GI50) worked out at 0.0242 µM with MV-4-11 cells, 0.136 µM in the assay on K-562 cells and 0.0367 µM in the assay on THP-1 cells.
The corresponding values for `COc1ncccc1-n1nc2c(c1C)C(c1ccc(F)cc1F)N(c1cc(C)c3nnc(C)n3c1)C2=O` (stereo not shown) [Example 193, 4-(2,4-difluorophenyl)-5-(3,8-dimethyl-[1,2,4]triazolo[4,3-a]pyridin-6-yl)-2-(2-methoxypyridin-3-yl)-3-methyl-4,5-dihydropyrrolo-[3,4-c]pyrazol-6(2H)-one] are 0.058 µM, 0.202 µM and 0.0662 µM.
On to `CC(=O)N1CC(n2nc(C)c3c2C(=O)N(c2cc(C)c(=O)n(C)c2)C3c2ccc(Cl)cc2)C1` (stereo not shown) [Example 153, 1-(1-acetylazetidin-3-yl)-4-(4-chlorophenyl)-5-(1,5-dimethyl-6-oxo-1,6-dihydropyridin-3-yl)-3-methyl-4,5-dihydropyrrolo[3,4-c]pyrazol-6(1H)-one], for which the 50% growth inhibitory concentration (GI50) is 0.115 µM in the assay on MV-4-11 cells, 0.925 µM with K-562 cells and 0.229 µM in the assay on THP-1 cells.
`CCc1nn(CCOC)c2c1C(c1ccc(Cl)cc1)N(c1cc(C)c3nnc(C)n3c1)C2=O` (stereo not shown) [Example 87, 4-(4-chlorophenyl)-5-(3,8-dimethyl-[1,2,4]triazolo[4,3-a]pyridin-6-yl)-3-ethyl-1-(2-methoxyethyl)-4,5-dihydropyrrolo-[3,4-c]pyrazol-6(1H)-one]: the figures for the GI50 in the assay with MV-4-11 cells, with K-562 cells and in the assay with THP-1 cells were 0.0164 µM, 0.128 µM and 0.0235 µM, respectively.
On to `COc1ncccc1-n1nc(C)c2c1C(=O)N(c1cc(C)c3nnc(C)n3c1)C2c1ccc(F)cc1F` (stereo not shown) [Example 173, 4-(2,4-difluorophenyl)-5-(3,8-dimethyl-[1,2,4]triazolo[4,3-a]pyridin-6-yl)-1-(2-methoxypyridin-3-yl)-3-methyl-4,5-dihydropyrrolo-[3,4-c]pyrazol-6(1H)-one], for which the GI50 with MV-4-11 cells was 0.0571 µM; in the assay with K-562 cells, 0.328 µM; in the assay with THP-1 cells, 0.0916 µM.
With `Cc1nn(-c2ccnn2C)c2c1[C@@H](c1ccc(Cl)cc1)N(c1cc(C)c(=O)n(C)c1)C2=O` [Example 120, (R)-4-(4-chlorophenyl)-5-(1,5-dimethyl-6-oxo-1,6-dihydropyridin-3-yl)-3-methyl-1-(1-methyl-1H-pyrazol-5-yl)-4,5-dihydropyrrolo-[3,4-c]pyrazol-6(1H)-one], the GI50 turned out to be 0.0557 µM in the assay on MV-4-11 cells, 0.402 µM with K-562 cells and 0.0792 µM in the assay on THP-1 cells. Also, the IC (TGI) with K-562 cells is given as more than 10 µM.
Turning to `Cc1nn(C(C)C)c2c1C(c1ccc(Cl)cc1)N(c1cc(C)c(=O)n(C)c1)C2=O` (stereo not shown) [Example 63, 4-(4-chlorophenyl)-5-(1,5-dimethyl-6-oxo-1,6-dihydropyridin-3-yl)-1-isopropyl-3-methyl-4,5-dihydropyrrolo[3,4-c]pyrazol-6(1H)-one], the figures for the GI50 in the assay on MV-4-11 cells, with K-562 cells and in the assay with THP-1 cells were 0.0258 µM, 0.314 µM and 0.0619 µM, respectively. The compound further displayed an IC (TGI) in the assay with K-562 cells of more than 10 µM.
With `COc1ncc(-n2nc3c(c2C(C)C)C(c2ccc(Cl)cc2)N(c2cc(C)c4onc(C)c4c2)C3=O)c(OC)n1` (stereo not shown) [Example 46, 4-(4-chlorophenyl)-2-(2,4-dimethoxypyrimidin-5-yl)-5-(3,7-dimethylbenzo[d]-isoxazol-5-yl)-3-isopropyl-4,5-dihydropyrrolo-[3,4-c]pyrazol-6(2H)-one], the figures for the 50% growth inhibitory concentration (GI50) in the assay on MV-4-11 cells, in the assay with K-562 cells and in the assay on THP-1 cells were 0.115 µM, 0.37 µM and 0.177 µM, respectively. Also, the IC (TGI) in the assay with K-562 cells is given as more than 10 µM.
On to `Cc1nn(C2CC2)c2c1C(c1cccc(C(F)(F)F)c1)N(c1cc(C)c(=O)n(C)c1)C2=O` (stereo not shown) [Example 96, 1-cyclopropyl-5-(1,5-dimethyl-6-oxo-1,6-dihydropyridin-3-yl)-3-methyl-4-(3-(trifluoromethyl)phenyl)-4,5-dihydropyrrolo[3,4-c]pyrazol-6(1H)-one], for which the concentration for 50% growth inhibition (GI50) turned out to be 0.894 µM with MV-4-11 cells, 5.9 µM with K-562 cells and 1.26 µM with THP-1 cells.
In the case of `Cc1cc(N2C(=O)c3nn(C)cc3[C@H]2c2ccc(Cl)cc2)cn(C)c1=O` [Example 16, (R)-4-(4-chlorophenyl)-5-(1,5-dimethyl-6-oxo-1,6-dihydropyridin-3-yl)-2-methyl-4,5-dihydropyrrolo-[3,4-c]pyrazol-6(2H)-one], the 50% growth inhibitory concentration (GI50) turned out to be 0.0758 µM in the assay on MV-4-11 cells, 0.624 µM with K-562 cells and 0.101 µM in the assay on THP-1 cells.
For the compound `Cc1cc(N2C(=O)c3c(c(CO)nn3C3CC3)C2c2ccc(Cl)cc2)cn2c(C)nnc12` (stereo not shown) [Example 131, 4-(4-chlorophenyl)-1-cyclopropyl-5-(3,8-dimethyl-[1,2,4]triazolo[4,3-a]pyridin-6-yl)-3-(hydroxymethyl)-4,5-dihydropyrrolo-[3,4-c]pyrazol-6(1H)-one], the GI50 in the assay with MV-4-11 cells came out at 0.0245 µM; in the assay on K-562 cells, 0.215 µM; in the assay with THP-1 cells it was 0.0597 µM. The IC (TGI) in the assay on K-562 cells is given as more than 10 µM.
Consider `Cc1cc(N2C(=O)c3c(c(C4CC4)nn3C)C2c2ccc(Cl)cc2)cn2c(C)nnc12` (racemic) [Example 129, 4-(4-chlorophenyl)-3-cyclopropyl-5-(3,8-dimethyl-[1,2,4]triazolo[4,3-a]pyridin-6-yl)-1-methyl-4,5-dihydropyrrolo-[3,4-c]pyrazol-6(1H)-one], for which the figures for the GI50 in the assay on MV-4-11 cells, in the assay with K-562 cells and in the assay on THP-1 cells were 0.0145 µM, 0.0989 µM and 0.0226 µM, respectively.

Usually GI50 stands for the concentration giving 50% growth inhibition. A lower GI50 goes with more potent growth inhibition.
